Results reported in US10617735B2, “Methods and compositions for preserving retinal ganglion cells” (Massachusetts Eye and Ear Infirmary, priority 2010, dated 2020).
Where a SMILES comes first, the peptide text is derived from it. The star is where a group is joined. Cbz = O=C(OCc1ccccc1)*; CH2F = FC*

Key:
Assay type in all cases: in vivo, mouse
[1] = tested on: retinal ganglion cells (RGCs); test: TUNEL staining after ON injury
From the text: Two mouse models of RGC death were utilized: optic nerve (ON) injury and N-methyl-D-aspartate (NMDA) retinal excitotoxicity. ON injury leads to RGC death as a result of primary damage to the axons, with its ensuing disruption of retrograde axonal transport (Libby et al., (2005) PLOS GENET 1:17-26) and is used as an RGC death model. In the ON injury model, mice were anesthetized and subjected to severe crush injury at 1-2 mm distance from the eyeball for 15 seconds using cross-action forceps taking special care not to interfere with the blood supply (Levkovitch-Verbin, (2004) EYE 18:1066-1074). […] Soon after injury, each group received an intravitreal injection (2 μl) with the respective compounds. In the NMDA retinal excitotoxicity model, NMDA (2 μl of a 0.1M stock; Sigma-Aldrich) was injected intravitreously in combination with ZVAD, Nec-1, or ZVAD plus Nec-1 and mice were separated into the aforementioned 4 groups. The dose of these compounds was selected based on previous studies (Karl et al., (2008) PROC NATL ACAD SCI USA 105:19508-19513; Knoferle et al., (2010) PROC NATL ACAD SCI USA 107:6064-6069; Nakazawa et al., (2006) J NEUROSCI 26:12633-12641; Rosenbaum et al., (2010) J NEUROSCI RES 88:1569-1576).
Intravitreal injections were performed as follows. Briefly, the tip of a 33 gauge needle (Hamilton, Reno, Nev.) was carefully inserted through the sclera into the intravitreal space to reduce intraocular pressure. Then, the needle was extracted, loaded with compounds and tangentially reinserted through the sclera into the intravitreal space, inducing a self-sealing wound tunnel. After injection, the absence of choroidal bleeding was confirmed. At specified times after injury, mice were sacrificed with an overdose of sodium pentobarbital, and eyes were enucleated.

[2] = tested on: retinal ganglion cells (RGCs); test: NMDA retinal excitotoxicity model: TUNEL staining; settings: NMDA injected intravitreously in combination with the compounds
From the text: Two mouse models of RGC death were utilized: optic nerve (ON) injury and N-methyl-D-aspartate (NMDA) retinal excitotoxicity. ON injury leads to RGC death as a result of primary damage to the axons, with its ensuing disruption of retrograde axonal transport (Libby et al., (2005) PLOS GENET 1:17-26) and is used as an RGC death model. In the ON injury model, mice were anesthetized and subjected to severe crush injury at 1-2 mm distance from the eyeball for 15 seconds using cross-action forceps taking special care not to interfere with the blood supply (Levkovitch-Verbin, (2004) EYE 18:1066-1074). Injured mice were randomly divided into 4 groups for treatment: vehicle group (0.5% DMSO and 0.8% cyclodextrin in PBS, n=6), ZVAD group (300 n=6), Nec-1 group (4 mM, n=6), and ZVAD plus Nec-1 group (n=6). Soon after injury, each group received an intravitreal injection (2 μl) with the respective compounds. In the NMDA retinal excitotoxicity model, NMDA (2 μl of a 0.1M stock; Sigma-Aldrich) was injected intravitreously in combination with ZVAD, Nec-1, or ZVAD plus Nec-1 and mice were separated into the aforementioned 4 groups. […]

[3] = tested on: retinal ganglion cells (RGCs); test: Propidium iodide (PI) staining of necrotic cells in GCL after ON injury; settings: one day after ON injury, wild-type mice
From the text: To investigate further the underlying mechanism of why Z-VAD fails to prevent RGC death after ON injury, propidium iodide (PI) was used to detect necrotic cells in GCL (Unal Cevik et al., (2010)). At one day after ON injury, Z-VAD administration increased the number of PI positive cells compared with vehicle (FIGS. 4A and 4B).

COC(=O)CC(NC(=O)C(C)NC(=O)C(NC(=O)OCc1ccccc1)C(C)C)C(=O)CF (stereo not drawn) [Z-VAD, Benzyloxycarbonyl-Val-Ala-Asp(OMe)-fluoromethylketone] (Cbz-Val-Ala-Asp(OMe)-CH2F; configuration not given here)
TUNEL positive cells ([1]; RIP3−/− mice, one day after ON injury): marked decrease in TUNEL positive cells
TUNEL positive cells (apoptotic RGCs) ([1]; wild-type mice, day one after ON injury, intravitreal Z-VAD (300 uM) and/or Nec-1 (400 uM)): failed to rescue RGCs
number of TUNEL positive cells [2]: decreased the number of TUNEL positive cells
number of PI positive cells [3]: increased
